For data set [1] the following is noted: in water at 20° C.; cited from earlier work.
The conditions of data set [2]: rat.
Protocol: Seven budesonide formulations were assessed for the ability to cross the lung by perfusion on an isolated lung perfusion system. LC-MS/MS was utilized to measure budesonide concentration in perfusate samples collected for up to approximately 123 minutes after intratracheal (IT) administration of the representative formulations to male Sprague-Dawley rats. The mass of budesonide remaining in the lung was also measured at the terminus of the procedure.
After release from quarantine, the study animals were euthanized with an IP injection of a barbiturate (minimum 150 mg/kg pentobarbital). The trachea, pulmonary artery and left ventricle were cannulated and the heart/lung bloc was removed from the thoracic cavity. The heart/lung bloc was placed in an artificial thoracic cavity (Hugo Sachs Electronik-Harvard). The budesonide suspension test formulations were administered by intratracheal installation at a volume of 40-100 μL. Following test formulation delivery, fractionated single pass perfusate samples were collected over a 2 hour period. The concentration of budesonide in the perfusate and lung tissue was determined by Liquid Chromatography-Mass Spectrometry (LC-MS/MS).
The test formulations contained in single unit dose vials (1.5 ml or 2 ml) were inverted several times before being transferred to a secondary container. Bulk formulations were diluted in saline and were gently swirled, and then aliquots of 40-100 μl were drawn up in a syringe and installed IT into the isolated perfused lung model directly through a cannula placed at the top of the trachea.
The Study animals were euthanized with an overdose of pentobarbital. During necropsy, the trachea and lungs were excised from the rat and placed on the IPL system cannula. The lungs were ventilated with room air at a rate of 60 breaths per minute by negative pressure ventilation. Chamber pressures were adjusted to reach target goals of a tidal volume of 2.5 ml and a peak expiratory flow of 12 ml/sec.
Single pass perfusate samples were collected over a 60-120 minute period. Perfusate samples were fractionated into 17 samples collected at approximately (min): 0.67; 1.3; 2.7; 4; 6; 8; 10; 12.5; 15; 22; 29; 36; 43; 63; 83; 103; and 123.
Perfusate and lung tissue samples were stored at −80° C. prior to subsequent analysis by LC-MS/MS. During operation of the isolated perfused lung (IPL) system pressure and flow recordings were collected using EMKA (version 2.5) software. […] Data was reduced to 5 minute data points for the purposes of statistical comparisons. Mean and standard error were performed on the perfusate and lung tissue concentrations using Microsoft Excel software. Pharmacokinetic properties were evaluated by WinNonlin software (Version 5.0.1, Pharsight Corporation, Sunnyvale, Calif. 94086).

As a reminder, the Cmax is the peak of the concentration-time curve. By Tmax is commonly meant the time from dosing to the highest level.

For `ClCCl` [dichloromethane], the water solubility in data set [1] is given as 13 grams/liter.

Take `CCOCC` [diethyl ether]: the water solubility in data set [1] was 69 grams/liter.

For the compound `CCOC(C)=O` [ethyl acetate], in data set [1], the water solubility is on record as 83 grams/liter.

As for `CC(=O)OC(C)C` [isopropyl acetate], the water solubility in data set [1] is 43 grams/liter.

As for `CC(=O)CC(C)C` [methyl isobutyl ketone], the water solubility in data set [1] is on record as 19 grams/liter.

In the case of “budesonide [Group-1, reference compound]”, in data set [2], the Cmax was determined as 104.5 ng/mL and the Tmax is 1.3 min.

On to “budesonide [Group-2, reference compound]”, for which the Tmax in data set [2] is recorded as 1.3 min.

For the compound “budesonide [Group-3, reference compound]”, in data set [2], the Tmax turned out to be 1.3 min.

Compound budesonide [Group-4] yielded a Cmax in data set [2] of 146.4 ng/mL.

In the case of “budesonide [Group-5, reference compound]”, the Tmax in data set [2] is 1.3 min.

The record behind these values is patent US20140120165A1, “CORTICOSTEROID PARTICLES AND METHOD OF PRODUCTION” (priority 2010, published 2014).
